This is an account of results in US20080206316A1, “Chromium-Fatty Acid Compounds and Methods of Making and Using Thereof” (priority 2005, published 2008).

The test system of this experiment is diabetic mice. In words: Fasting blood glucose in diabetic mice fed test diets. It counts as in vivo, Mice (C57BL/6J). On the procedure: Mice (C57BL/6J) weighing 20-grams were fed a high fat, high sucrose diet with no added chromium (No. D01030101, Research Diets Inc., New Brunswick, N.J.). After two weeks, they were injected intraperitoneally (i.p.) with streptozotocin (in phosphate-buffered saline, PBS) at a dose of 35 mg/kg body weight on 3 consecutive days. The combination of the high fat/high sucrose diet and streptozotocin treatment produced an impaired glucose tolerance evident 7 days following the initial streptozotocin injection (FIG. 5). Glucose tolerance was measured in mice fasted overnight and then injected i.p. with 1 g glucose/kg body weight (0.25 mL of a 10% glucose solution in PBS). Blood glucose was measured using a glucometer (OneTouch Ultra, LifeScan Inc., Milpitas, Calif.) on a drop of blood obtained from the saphenous vein just prior to (0 time) and at 10, 30, 60, 90 and 120 minutes following injection.
Animals were subsequently assigned to one of four different diet treatments, six animals per group. The diets were modified from the above high fat, high sucrose diet (Table 6). Each diet contained 1.5% fish oil concentrate (40:20 EPA/DHA ethyl ester, Ocean Nutrition Canada, Ltd., Mulgrave, NS). […] The animals were fed these diets for 4 weeks, after which time, fasting blood glucose and glucose tolerance was evaluated. […]

With `O=C([O-])c1ccccn1.O=C([O-])c1ccccn1.O=C([O-])c1ccccn1.[Cr+3]` [Cr picolinate], under “diabetic mice (high fat/high sucrose diet + streptozotocin), diet with 1000 μg elemental Cr/kg diet for 4 weeks, fasted”, the “Fast blood glucose levels” value stood at 8.17 ± 1.8 mM. In addition, where the note is “diabetic mice, dietary Cr for 4 weeks”, the “fasting blood glucose compared to the level in the control group” value is on record as “reduction in fasting blood glucose”.
